Experimental data as given in patent publication US20230108004A1, “TREATMENT OF EPILEPSY WITH PLINABULIN OR HALIMIDE OR DIKETOPIPERAZINE DERIVATIVES” (Katholieke Universiteit Leuven, priority 2017, published 2023).

Tests used:
[1] = test system: PTZ-induced seizure behavior in zebrafish larvae; assay: Zebrafish pentylenetetrazole (PTZ) seizure model, behavioral analysis; type: in vivo, zebrafish (Danio rerio); settings: 2 hours incubation; for antiseizure activity of the separated enantiomers: S-enantiomer only significant at 200 μg/mL (p<0.01)
Procedure: Experiments were performed as described in Copmans et al. (2018) Neurochem. Int. 112, 124-133; Afrikanova et al (2013) PLoS One 8, e54166 and Orellana-Paucar et al. (2012) Epilepsy Behav 24, 14-22. In brief, a single 7 dpf larva was placed in each well of a 96-well plate and treated with either VHC (1% DMSO) or test compound (1% DMSO) in a 100 μL volume. Larvae were incubated in dark for 2 hours at 28° C., whereafter 100 μL of either VHC (embryo medium) or 40 mM PTZ (20 mM working concentration) was added to each well. Next, within 5 minutes the 96-well plate was placed in an automated tracking device (ZebraBox Viewpoint, France) and larval behavior was video recorded for 30 minutes. The complete procedure was performed in dark conditions using infrared light. Total locomotor activity was recorded by ZebraLab software (Viewpoint, France) and expressed in actinteg units, which is the sum of pixel changes detected during the defined time interval (5 minutes). Larval behavior was depicted as mean actinteg units per 5 minutes during the 30 minute recording period and over consecutive time intervals. Data are expressed as mean±SD for single experiments with regards to screening and as mean±SEM for single experiments and for independent experiments of which the means or data are pooled.
In the first secondary screen three replicate wells were used per sample (100 μg/mL) tested and each experimental plate contained 12 internal control wells. In the second secondary screen six replicate wells were used per sample and concentration tested (100, 33, and 11 μg/mL), again 12 internal control wells were used per experimental plate.

[2] = test system: PTZ-induced epileptiform discharges in zebrafish larvae; assay: Zebrafish PTZ seizure model, electrophysiology (local field potential recordings from the optic tectum); type: in vivo, zebrafish (Danio rerio); settings: 2 hours, 10 min recording
Procedure: Non-invasive LFP recordings were measured from the midbrain (optic tectum) of 7 dpf zebrafish larvae pre-incubated with VHC only, PTZ only, compound and VHC, or compound and PTZ [Zdebik, et al. (2013) PLoS One 8, 6e10. Experiments were performed as described in Copmans, et al. (2018) Neurochem. Int. 112, 124-133 and Copmans et al. (2018) ACS chemical neuroscience.]. In brief, larvae were incubated for approximately 2 hours with VHC (1% DMSO) or test compound (1% DMSO) in a 100 μL volume. After incubation, an equal volume of VHC (embryo medium) or 40 mM PTZ (20 mM working concentration) was added to the well for 15 minutes prior to recording. These steps occurred at 28° C., while further manipulation and electrophysiological recordings occurred at room temperature (±21° C.). The larva was embedded in 2% low melting point agarose (Invitrogen) and the signal electrode (an electrode inside a soda-glass pipet (1412227, Hilgenberg) pulled with a DMZ Universal Puller (Zeitz, Germany), diameter±20 microns, containing artificial cerebrospinal fluid (ACSF: 124 mM NaCl, 10 mM glucose, 2 mM KCl, 2 mM MgSO4, 2 mM CaCl2), 1.25 mM KH2PO4, and 26 mM NaHCO3, 300-310 mOsmols)) was positioned on the skin covering the optic tectum. A differential extracellular amplifier (DAGAN, USA) amplified the voltage difference between the signal (measured by the signal electrode) and the reference electrode. The differential signal was band pass filtered at 0.3-300 Hz and digitized at 2 kHz via a PCI-6251 interface (National instruments, UK) using WinEDR (John Dempster, University of Strathclyde, UK). A grounding electrode grounded the electrical system. All electrodes were connected with ACSF. Each recording lasted 600 seconds. Manual analysis was completed by quantification of the number, cumulative duration, and mean duration of epileptiform-like events with Clampfit 10.2 software (Molecular Devices Corporation, USA). An electrical discharge was considered epileptiform if it was a poly-spiking event comprising at least 3 spikes with a minimum amplitude of three times the baseline amplitude and a duration of at least 100 milliseconds. Data are expressed as mean±SD.

[3] = test system: zebrafish larvae; assay: Zebrafish toxicity evaluation: maximum tolerated concentration (MTC); type: in vivo, zebrafish (Danio rerio); settings: highest concentration without death, toxicity or locomotor impairment
Procedure: Maximum tolerated concentration (MTC) was determined prior to further experiments and used as the highest test concentration. Experiments were performed as described in Copmans et al. (2018) Neurochem. Int. 112, 124-133. before. In brief, the MTC was investigated by exposing 12 larvae of 6 or 7 dpf to a range of concentrations in a 100 μL volume during 18 hours. The following parameters were investigated after 2 and 18 hours of exposure: touch response, morphology, posture, edema, signs of necrosis, swim bladder, and heartbeat. […] In case no MTC was reached, the highest soluble concentration was used.
Maximum tolerated concentration (MTC) was determined prior to further experiments and used as the highest test concentration. Experiments were performed as described in Copmans et al. (2018). Neurochem. Int. 112, 124-133. In brief, the MTC was investigated by exposing 12 larvae of 7 dpf to a range of concentrations in a 100 μL volume during 18 hours. The following parameters were investigated after 2 and 18 hours of exposure: touch response, morphology, posture, edema, signs of necrosis, swim bladder, and heartbeat.

[4] = test system: EKP-induced epileptiform discharges in zebrafish larvae; assay: Zebrafish EKP seizure model, electrophysiology (local field potential recordings); type: in vivo, zebrafish (Danio rerio); settings: 12.5 μg/mL, 2 hours; 10 min recording; p≤0.05
Procedure: Non-invasive LFP recordings were measured from the midbrain (optic tectum) of 7 dpf zebrafish larvae pre-incubated with VHC only, EKP only, compound and VHC, or compound and EKP. Larvae were incubated for approximately 2 hours with VHC (1% DMSO) or test compound (1% DMSO). After incubation, VHC (1% DMSO) or 1 mM EKP (1% DMSO, 500 μM working concentration) was added to the well for 15 minutes prior to recording. These steps occurred at 28° C., while further manipulation and electrophysiological recordings occurred at room temperature (±21° C.). The larva was embedded in 2% low melting point agarose (Invitrogen) and the signal electrode was positioned on the skin covering the optic tectum and electrophysiological recordings (room temperature) were performed as described above for the zebrafish PTZ seizure model and as described in Zhang et al. (2017) Sci. Rep. 7, 7195. Manual analysis was completed by quantification of the number, cumulative duration, and mean duration of epileptiform-like events with Clampfit 10.2 software (Molecular Devices Corporation, USA). An electrical discharge was considered epileptiform if it was a poly-spiking event comprising at least 3 spikes with a minimum amplitude of three times the baseline amplitude and a duration of at least 100 milliseconds. Data are expressed as mean±SD.

[5] = test system: drug-resistant psychomotor seizures induced by corneal electrical stimulation; assay: Mouse 6-Hz (44 mA) psychomotor seizure model; type: in vivo, Male NMRI mice; settings: 30 min before stimulation, VHC 28 s
Procedure: Experiments were performed as previously described. In brief, NMRI mice (average weight 32 g, range 28-36 g) were randomly divided into control and treatment groups (n=6-11). 50 μL (injection volume was adjusted to the individual weight) of VHC (PEG200:DMSO 1:1) or treatment (an ASD or test compound dissolved in VHC) was i.p. injected in mice and after 30 minutes psychomotor seizures were induced by low frequency, long duration corneal electrical stimulation (6 Hz, 0.2 ms rectangular pulse width, 3 s duration, 44 mA) using an ECT Unit 5780 (Ugo Basile, Comerio, Italy). Mice were manually restrained and a drop of ocular anesthetic (0.5% lidocaine) was applied to the corneas before stimulation. Following electrical current stimulation, the mouse was released in a transparent cage for behavioral observation, which was video-recorded. […] In addition, facial and mouth jerking as well as head nodding were observed occasionally. Seizure durations were measured during the experiment by experienced researchers, familiar with the different seizure behaviors. In addition, seizure durations were determined by blinded video analysis to confirm or correct the initial observations. Data are expressed as mean±SD.

[6] = test system: EKP-induced seizure behavior in zebrafish larvae; assay: Zebrafish ethyl ketopentenoate (EKP) seizure model, behavioral analysis; type: in vivo, zebrafish (Danio rerio)
Procedure: Experiments were performed as described in Zhang et al. (2017) Sci. Rep. 7, 7195. In brief, a single 7 dpf larva was placed in each well of a 96-well plate and treated with either VHC (1% DMSO) or test compound (1% DMSO) in a 100 μL volume. Larvae were incubated in dark for 2 hours at 28° C., whereafter 100 μL of either VHC (1% DMSO) or 1 mM EKP (1% DMSO, 500 μM working concentration) was added to each well. Next, within 5 minutes the 96-well plate was placed in an automated tracking device (ZebraBox Viewpoint, France) and larval behavior was video recorded for 30 minutes. The complete procedure was performed in dark conditions using infrared light. Total locomotor activity was recorded by ZebraLab software (Viewpoint, France) and expressed in actinteg units, which is the sum of pixel changes detected during the defined time interval (5 minutes). Larval behavior was depicted as mean actinteg units per 5 minutes during the 30 minute recording period and over consecutive time intervals. Data are pooled from independent experiments and expressed as mean±SEM.

With `C=CC(C)(C)c1[nH]cnc1C=C1NC(=O)C(Cc2ccccc2)NC1=O` (single isomer, unassigned) [R-enantiomer] the “antiseizure activity of the separated enantiomers” value [1] was “no significant effect”.
In the case of `C=CC(C)(C)c1nc[nH]c1/C=C1\NC(=O)C(Cc2ccccc2)NC1=O` (single isomer, unassigned) [S-enantiomer], the “antiseizure activity of the separated enantiomers” value [1] is reported as “active”.
`C=CC(C)(C)c1nc[nH]c1/C=C1\NC(=O)C(Cc2ccccc2)NC1=O` (stereo not drawn) [halimide] was tested, and the PTZ-induced seizure behavior ([1]; halimide at its MTC, 30 min recording period, p≤0.05) was “significantly lowered”, the “cumulative duration of PTZ-induced epileptiform events” value ([2]; MTC (200 μg/mL), p≤0.001) was “significantly lowered” and the “lowering of the percentage of larvae with PTZ-induced epileptiform activity” value ([2]; MTC (200 μg/mL), p≤0.001) was roughly 60%. For the same compound, the “number of PTZ-induced epileptiform events” value ([2]; MTC (200 μg/mL), p≤0.001) was “significantly lowered” and the “maximum tolerated concentration (MTC)” value [3] was 200 µg/mL.
With `CC(C)(C)c1[nH]cnc1/C=c1\[nH]c(=O)/c(=C/c2ccccc2)[nH]c1=O` [plinabulin] the “cumulative duration of EKP-induced epileptiform events” value [4] was “significantly lowered”, the “lowering of the percentage of larvae with EKP-induced epileptiform activity” value [4] was 40% and the “number of EKP-induced epileptiform events” value [4] was “significantly lowered”. The mean seizure duration ([5]; 5 mg/kg i.p., not significant) was 21 s, the mean seizure duration ([5]; 10 mg/kg i.p., p<0.05) was 12.5 s and the mean seizure duration ([5]; 20 mg/kg i.p., p<0.01) was 15 s. For the same compound, the mean seizure duration ([5]; 40 mg/kg i.p., p<0.05) was 15 s, the PTZ-induced seizure behavior ([1]; 1.56-12.5 μg/mL, 30 min recording, p≤0.01 (1.56), p≤0.001 (3.13, 6.25, 12.5) (FIG. 7A)) was “significantly lowered” and the PTZ-induced seizure behavior ([1]; 12.5 and 3.13 μg/mL, 30 min recording period, p≤0.001 (FIG. 4C)) was “significantly lowered”. The “number of PTZ-induced epileptiform events” value ([2]; 12.5 μg/mL) was “non-significantly lowered”, the “percentage of larvae with PTZ-induced epileptiform activity” value ([2]; 12.5 μg/mL) was “non-significantly lowered” and the “cumulative duration of PTZ-induced epileptiform events” value ([2]; 12.5 μg/mL, p≤0.05) was “significantly lowered”. The “normal swimming behavior in comparison to VHC-treated larvae” value ([6]; 3.13, 6.25 and 12.5 μg/mL, compound+VHC, zebrafish EKP seizure model) was “significantly lowered” and the EKP-induced seizure behavior ([6]; all concentrations tested (0.78-12.5 μg/mL), 2 hours incubation, 30 min recording (FIG. 7B)) was “significantly lowered”.
